According to ChEMBL document CHEMBL6120958, “A Highly Atom-Efficient Prodrug Approach to Generate Synergy between H2S and Nonsteroidal Anti-inflammatory Drugs and Improve Safety” (J Med Chem, 2024):
Active and inactive are the calls of the source. The calls are words filed in the database; no cut-off is given here.

Columns and labels:
[1] = target: T1, Liver carboxylesterase (Sus scrofa, UniProt Q29550); assay: Prodrug release in PBS assessed as porcine liver esterase-mediated hydrolysis at 500 uM measured at pH 7.4 in presence of PMSF by HPLC analysis; format: ADME; details: pig, isolated protein, pH 7.4, 500 µM
T1 sequence (Q29550 whole entry): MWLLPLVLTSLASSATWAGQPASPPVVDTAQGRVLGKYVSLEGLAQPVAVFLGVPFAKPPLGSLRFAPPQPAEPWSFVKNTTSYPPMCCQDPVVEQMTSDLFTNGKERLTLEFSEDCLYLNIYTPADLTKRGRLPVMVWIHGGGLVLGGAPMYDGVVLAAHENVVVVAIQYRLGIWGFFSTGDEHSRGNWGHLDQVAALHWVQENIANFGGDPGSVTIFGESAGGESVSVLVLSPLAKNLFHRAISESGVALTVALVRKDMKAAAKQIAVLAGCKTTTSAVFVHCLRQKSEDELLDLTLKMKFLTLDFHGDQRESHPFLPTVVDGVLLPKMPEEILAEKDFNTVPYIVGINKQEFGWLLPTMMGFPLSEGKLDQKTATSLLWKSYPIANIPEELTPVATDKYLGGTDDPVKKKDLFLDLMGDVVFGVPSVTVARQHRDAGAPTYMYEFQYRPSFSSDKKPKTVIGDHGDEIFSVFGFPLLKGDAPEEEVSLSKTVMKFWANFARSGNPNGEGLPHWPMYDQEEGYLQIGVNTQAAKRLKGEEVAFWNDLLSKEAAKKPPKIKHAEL

[2] = target: T1, Liver carboxylesterase; assay: Prodrug release in PBS assessed as porcine liver esterase-mediated hydrolysis by measuring peak H2S concentration at 500 uM measured at pH 7.4 after 80 mins by methylene blue method; format: ADME; details: pig, isolated protein, pH 7.4, 1.333 h
[3] = Stability in Sprague-Dawley rat assessed as parent compound level in blood at 80 umol/kg, iv measured after 1 min by LC-MS/MS analysis; format: ADME, organism-based; details: whole blood, dose 80 µmol/kg, read-out: Stability
[4] = target: T1, Liver carboxylesterase; assay: Prodrug release in PBS assessed as porcine liver esterase-mediated hydrolysis by measuring half-life at 500 uM measured at pH 7.4 by HPLC analysis; format: ADME; details: pig, isolated protein, pH 7.4, 500 µM
[5] = Stability of the compound in PBS at 500 uM measured for 3 months at pH 7.4 at -20 degC by HPLC analysis; format: physicochemical; details: buffer, pH 7.4, 2190 h
[6] = Stability in Sprague-Dawley rat assessed as parent compound level in blood at 80 umol/kg, iv measured after 5 mins by LC-MS/MS analysis; format: ADME, organism-based; details: whole blood, dose 80 µmol/kg, read-out: Stability
[7] = Stability of the compound in rat plasma assessed as half life by LC-MS/MS analysis; format: ADME, cell-free
[8] = target: T1, Liver carboxylesterase; assay: Prodrug release in PBS assessed as porcine liver esterase-mediated hydrolysis by measuring H2S concentration at 500 uM measured at pH 7.4 after 5 hrs by methylene blue method; format: ADME; details: pig, isolated protein, pH 7.4, 5 h
[9] = test system: Rattus norvegicus; assay: Prodrug release in Sprague-Dawley rat assessed as benzoic acid level in blood at 80 umol/kg, iv measured after 5 mins by LC-MS/MS analysis; format: ADME, organism-based; details: in vivo, dose 80 µmol/kg
[10] = test system: Mus musculus; assay: Prodrug release in C57BL/6J mouse assessed as increase in H2S concentration in blood at 50 umol/kg, iv measured after 15 mins by gas chromatography; format: ADME, organism-based; details: in vivo, 0.25 h, dose 50 µmol/kg
[11] = Stability of the compound in PBS at 500 uM measured within 144 hrs at pH 7.4 at 37 degC by HPLC analysis; format: physicochemical; details: buffer, pH 7.4, 144 h
[12] = test system: Rattus norvegicus; assay: Prodrug release in Sprague-Dawley rat assessed as benzoic acid level in blood at 80 umol/kg, iv measured after 1 min by LC-MS/MS analysis; format: ADME, organism-based; details: in vivo, dose 80 µmol/kg
[13] = target: T2, Prostaglandin G/H synthase 1 (Ovis aries, UniProt P05979); assay: Inhibition of ovine COX1 assessed as reduction in PGF2alpha production using arachidonic acid as substrate preincubated with enzyme for 10 mins followed by substrate addition and measured after 2 mins by ELISA
T2 sequence (P05979 whole entry): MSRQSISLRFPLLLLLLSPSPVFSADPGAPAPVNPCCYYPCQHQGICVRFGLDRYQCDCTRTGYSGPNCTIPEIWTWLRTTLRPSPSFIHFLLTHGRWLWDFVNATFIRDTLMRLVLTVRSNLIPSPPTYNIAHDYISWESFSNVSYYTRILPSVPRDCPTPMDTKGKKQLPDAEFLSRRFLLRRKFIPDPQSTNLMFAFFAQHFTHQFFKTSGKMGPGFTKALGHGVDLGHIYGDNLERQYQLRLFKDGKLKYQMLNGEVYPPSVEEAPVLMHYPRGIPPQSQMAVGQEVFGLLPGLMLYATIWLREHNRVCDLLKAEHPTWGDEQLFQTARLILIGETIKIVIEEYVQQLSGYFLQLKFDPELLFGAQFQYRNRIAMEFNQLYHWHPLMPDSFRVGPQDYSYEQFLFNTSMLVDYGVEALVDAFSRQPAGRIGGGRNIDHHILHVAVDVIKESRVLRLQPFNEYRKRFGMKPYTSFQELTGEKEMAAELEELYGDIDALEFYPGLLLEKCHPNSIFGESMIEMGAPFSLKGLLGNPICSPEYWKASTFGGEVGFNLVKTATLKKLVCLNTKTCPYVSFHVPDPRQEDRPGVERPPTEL

[14] = target: T1, Liver carboxylesterase; assay: Prodrug release in PBS assessed as porcine liver esterase-mediated hydrolysis by measuring peak H2S concentration at 500 uM measured at pH 7.4 after 90 mins by methylene blue method; format: ADME; details: pig, isolated protein, pH 7.4, 1.5 h
[15] = target: T3, Prostaglandin G/H synthase 2 (Homo sapiens, UniProt P35354); assay: Inhibition of human recombinant COX2 assessed as reduction in PGF2alpha production using arachidonic acid as substrate preincubated with enzyme for 10 mins followed by substrate addition and measured after 2 mins by ELISA
T3 sequence (P35354 whole entry): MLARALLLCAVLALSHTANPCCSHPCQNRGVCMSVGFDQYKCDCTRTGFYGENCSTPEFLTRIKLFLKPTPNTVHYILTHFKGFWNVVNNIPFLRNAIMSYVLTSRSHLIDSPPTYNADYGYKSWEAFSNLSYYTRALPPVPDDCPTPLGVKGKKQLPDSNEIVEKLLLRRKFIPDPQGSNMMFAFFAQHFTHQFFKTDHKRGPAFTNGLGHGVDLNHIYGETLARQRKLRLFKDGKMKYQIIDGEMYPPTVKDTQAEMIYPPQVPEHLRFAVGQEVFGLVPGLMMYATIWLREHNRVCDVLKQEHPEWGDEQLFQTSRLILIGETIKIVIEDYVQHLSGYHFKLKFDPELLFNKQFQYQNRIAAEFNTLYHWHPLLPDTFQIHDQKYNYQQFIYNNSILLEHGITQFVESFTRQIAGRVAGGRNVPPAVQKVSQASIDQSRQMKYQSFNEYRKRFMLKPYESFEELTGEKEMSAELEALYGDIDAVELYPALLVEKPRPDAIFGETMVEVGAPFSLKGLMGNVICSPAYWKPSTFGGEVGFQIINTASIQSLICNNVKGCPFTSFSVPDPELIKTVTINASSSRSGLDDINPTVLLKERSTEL

[16] = target: T1, Liver carboxylesterase; assay: Prodrug release in PBS assessed as porcine liver esterase-mediated hydrolysis by measuring peak H2S concentration at 500 uM measured at pH 7.4 after 40 mins by methylene blue method; format: ADME; details: pig, isolated protein, pH 7.4, 40 min
[17] = test system: Mus musculus; assay: (§1) Protection against ischemia/reperfusion injury in middle cerebral artery occlusion C57BL/6J mouse model assessed as decrease in malondialdehyde level in brain at 100 umol/kg, iv administered within initial 20 mins of ischemia period followed by reperfusion for 24 hrs after 1 hr and 20 mins of ischemia period and measured at 24 hrs post-reperfusion; format: functional, organism-based; details: dose 100.0 µmol/kg, time 2960.0 min
[18] = test system: Mus musculus; assay: as §1, with “infarct size” for “malondialdehyde level”, “post-reperfusion by TTC staining based analysis” for “post-reperfusion”; format: functional, organism-based; details: dose 100.0 µmol/kg, time 2960.0 min
[19] = Toxicity against collagen-induced arthritis Wistar rat model assessed as creatinine level in serum at 33.7 umol/kg, po administered for 28 days; format: organism-based; details: in vivo, 672 h, dose 33.7 µmol/kg, time 28 day
[20] = test system: Rattus norvegicus; assay: Antiinflammatory activity against collagen-induced arthritis Wistar rat model assessed as reduction in toe swelling at 33.7 umol/kg, po administered for 28 days via gavage; format: functional, organism-based; details: dose 33.7 µmol/kg, time 28.0 day
[21] = Cardiotoxicity against Sprague-Dawley rat assessed as LDH level in serum at 13.5 mg/kg, ip administered for 6 days (reference value: 831.8 +/-23.1 U/L); format: toxicity, organism-based; details: in vivo, 144 h, time 6 day
[22] = Toxicity against collagen-induced arthritis Wistar rat model assessed as gastrointestinal tract damage by measuring ulcer area in stomach at 33.7 umol/kg, po administered for 28 days; format: organism-based; details: in vivo, 672 h, at 33.7 µmol/kg, time 28 day
[23] = Oral bioavailability in Wistar rat at 10 mg/kg; format: ADME, organism-based; details: in vivo
[24] = test system: Rattus norvegicus; assay: Antiinflammatory activity against collagen-induced arthritis Wistar rat model assessed as reduction in IL-1 beta level in serum at 33.7 umol/kg, po administered for 28 days via gavage by ELISA; format: functional, organism-based; details: dose 33.7 µmol/kg, time 28.0 day
[25] = Toxicity against C57BL/6J mouse assessed as AST level in serum at 506 umol/kg, ip measured after 24 hrs; format: organism-based; details: in vivo, dose 506 µmol/kg
[26] = Toxicity against collagen-induced arthritis Wistar rat model assessed as glutathione level in liver at 33.7 umol/kg, po administered for 28 days; format: organism-based; details: in vivo, 672 h, dose 33.7 µmol/kg, time 28 day
[27] = test system: Rattus norvegicus; assay: Antiinflammatory activity against collagen-induced arthritis Wistar rat model assessed as increase in IL-10 level in serum at 33.7 umol/kg, po administered for 28 days via gavage by ELISA; format: functional, organism-based; details: dose 33.7 µmol/kg, time 28.0 day
[28] = Toxicity against collagen-induced arthritis Wistar rat model assessed as AST level in serum at 33.7 umol/kg, po administered for 28 days; format: organism-based; details: in vivo, 672 h, dose 33.7 µmol/kg, time 28 day
[29] = Toxicity against collagen-induced arthritis Wistar rat model assessed as gastric ulcer area at 16.8 umol/kg, po administered for 28 days; format: organism-based; details: in vivo, 672 h, at 16.8 µmol/kg, time 28 day
[30] = Toxicity against collagen-induced arthritis Wistar rat model assessed as uric acid level in serum at 33.7 umol/kg, po administered for 28 days; format: organism-based; details: in vivo, 672 h, dose 33.7 µmol/kg, time 28 day
[31] = Toxicity against C57BL/6J mouse assessed as ALT level in serum at 506 umol/kg, ip measured after 24 hrs; format: organism-based; details: in vivo, dose 506 µmol/kg

O=C([S-])c1ccccc1.[Na+]
Drug metabolism [1]: metabolite_notdetected | Drug metabolism [2]: 70 µM | concentration at 1 min [3]: 439 µM | t1/2 [4]: 150.6 min | Stability [5]: Stable | concentration at 5 min [6]: 113 µM | half-life [7]: 130 min | Drug metabolism [8]: metabolite_detected | Drug metabolism [9]: 78.3 µM | Drug metabolism [10]: metabolite_detected | Stability [11]: Stable | Drug metabolism [12]: 46.4 µM

COc1ccc2c(c1)c(CC(=O)[S-])c(C)n2C(=O)c1ccc(Cl)cc1.[Na+]
t1/2 [4]: 267 min | Stability [5]: Stable | half-life [7]: 1280 min | IC50 [13]: 7.6 nM | Stability [11]: Stable | Drug metabolism [14]: 29 µM

Cc1ccc(CC(=O)[S-])cc1.[Na+]
Stability [5]: Stable | Stability [11]: Stable

COc1ccc2cc([C@H](C)C(=O)O)ccc2c1 [NAPROXEN]
IC50 [15]: 10.6 µM

O=C([S-])CCc1ccccc1.[Na+]
Stability [5]: Stable | Stability [11]: Stable

CC(C(=O)[S-])c1ccc(-c2ccccc2)c(F)c1.[Na+] (configuration not stated)
Stability [5]: Stable | half-life [7]: 280 min | IC50 [13]: 221 nM | Stability [11]: Stable

O=C([S-])CCc1ccc(Cl)cc1.[Na+]
t1/2 [4]: 5.8 min | Stability [5]: Stable | Drug metabolism [16]: 129 µM | Stability [11]: Stable

Cc1ccc(C(=O)[S-])cc1.[Na+]
Stability [5]: Stable | Stability [11]: Stable

COc1ccc(C(=O)[S-])cc1.[Na+]
Stability [5]: Stable | Stability [11]: Stable

OC(=S)c1ccccc1
Activity [17]: Active | Activity [18]: Active; Comparable Efficacy To Na2S Observed

COc1ccc(CCC(=O)[S-])cc1.[Na+]
Stability [5]: Stable | Stability [11]: Stable

O=C([S-])c1ccc2ccccc2c1.[Na+]
Stability [5]: Stable | Stability [11]: Stable

COc1ccc2cc([C@H](C)C(=O)[S-])ccc2c1.[Na+]
Stability [5]: Stable | half-life [7]: 404 min | IC50 [13]: 1300 nM | Stability [11]: Stable

O=C([S-])Cc1ccc2ccccc2c1.[Na+]
Stability [5]: Stable | Stability [11]: Stable

O=C(O)Cc1ccccc1Nc1c(Cl)cccc1Cl [DICLOFENAC]
Activity [19]: 342.6 µmol/L | Activity [20]: Active | Activity [21]: 2249 U/L | Activity [22]: 0.42% | bioavailability [23]: 75% | Activity [24]: Active | Activity [25]: 128.6 U/L | Activity [26]: 0.8 µg/mg | Activity [27]: Active | Activity [28]: 75.3 U/L | Activity [29]: 0.09% | Activity [30]: 165.6 µmol/L | Activity [31]: 76.9 U/L

O=C([S-])Cc1ccccc1.[Na+]
Stability [5]: Stable | Stability [11]: Stable
